Values after ≈ are worked out from the molar mass of the structure shown.
Molecular target: Cathepsin S (Homo sapiens, UniProt P25774)
Experiment: Inhibition of cathepsin S
Assay type: single protein
Settings: not given

Sequence of Cathepsin S (P25774 whole entry): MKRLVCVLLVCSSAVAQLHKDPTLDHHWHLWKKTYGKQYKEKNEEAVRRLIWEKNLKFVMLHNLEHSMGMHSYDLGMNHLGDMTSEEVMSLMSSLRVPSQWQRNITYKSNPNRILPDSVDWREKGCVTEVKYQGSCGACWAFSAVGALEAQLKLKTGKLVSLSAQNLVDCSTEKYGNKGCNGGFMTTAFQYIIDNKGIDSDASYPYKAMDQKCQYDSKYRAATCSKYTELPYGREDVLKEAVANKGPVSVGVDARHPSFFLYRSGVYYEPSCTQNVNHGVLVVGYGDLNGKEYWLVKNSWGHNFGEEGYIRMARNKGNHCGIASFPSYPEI

SMILES	Ki [nM]
CC(C)(C)C[C@H](NC(=O)N1CCOCC1)C(=O)NCCNc1ccc(OC(F)(F)F)cc1	220
O=C(NCCNc1ccc(OC(F)(F)F)cc1)[C@H](CC1CCCCC1)NC(=O)[C@H]1CCCO1	658
C[C@@H](CNc1ccc(OC(F)(F)F)cc1)NC(=O)[C@H](CC1CCCCC1)NC(=O)O[C@@H]1CCOC1	42
C[C@@H](CN1CCc2cc(F)ccc21)NC(=O)[C@H](CC1CCCCC1)NC(=O)N1CCOCC1	87

These reach a lower Ki. Values come first.

Ki [nM]	SMILES
11	O=C(N[C@@H](CC1CCCCC1)C(=O)NCCNc1ccc(OC(F)(F)F)cc1)c1ccc(-c2cccc(C(F)(F)F)c2)o1
17	O=C(N[C@@H](CC1CCCCC1)C(=O)NCCNc1ccc(OC(F)(F)F)cc1)c1cc2ccccc2o1
18	C[C@@H](CNc1ccc(OC(F)(F)F)cc1)NC(=O)[C@H](CC1CCCCC1)NC(=O)[C@H]1CCCO1

Molecular target: T1, Cathepsin K (Homo sapiens, UniProt P43235)
T1 sequence (P43235 whole entry): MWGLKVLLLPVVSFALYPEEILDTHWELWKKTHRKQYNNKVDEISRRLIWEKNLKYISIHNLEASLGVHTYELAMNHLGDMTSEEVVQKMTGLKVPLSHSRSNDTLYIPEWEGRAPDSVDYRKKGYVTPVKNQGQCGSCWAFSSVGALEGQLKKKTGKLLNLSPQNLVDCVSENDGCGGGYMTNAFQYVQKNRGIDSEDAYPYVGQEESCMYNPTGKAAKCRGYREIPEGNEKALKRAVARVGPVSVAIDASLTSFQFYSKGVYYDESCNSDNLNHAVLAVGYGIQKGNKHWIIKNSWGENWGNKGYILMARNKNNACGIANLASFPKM
Experiment: Inhibition of cathepsin K
Assay type: single protein
Settings: not given

SMILES	Ki [nM]
CC(C)(C)C[C@H](NC(=O)N1CCOCC1)C(=O)NCCNc1ccc(OC(F)(F)F)cc1	1330
O=C(NCCNc1ccc(OC(F)(F)F)cc1)[C@H](CC1CCCCC1)NC(=O)[C@H]1CCCO1	> 30000
C[C@@H](CNc1ccc(OC(F)(F)F)cc1)NC(=O)[C@H](CC1CCCCC1)NC(=O)O[C@@H]1CCOC1	> 30000
C[C@@H](CN1CCc2cc(F)ccc21)NC(=O)[C@H](CC1CCCCC1)NC(=O)N1CCOCC1	5130

Other lines, results leading:

Ki [nM]	SMILES
8580	O=C(N[C@@H](CC1CCCCC1)C(=O)NCCNc1ccc(OC(F)(F)F)cc1)c1ccc(-c2cccc(C(F)(F)F)c2)o1
150	O=C(N[C@@H](CC1CCCCC1)C(=O)NCCNc1ccc(OC(F)(F)F)cc1)c1cc2ccccc2o1
4610	C[C@@H](CNc1ccc(OC(F)(F)F)cc1)NC(=O)[C@H](CC1CCCCC1)NC(=O)[C@H]1CCCO1

Test system: not listed separately
Experiment: Solubility at pH 6.8
Assay type: physicochemical
Settings: buffer

SMILES	solubility [µg/mL]
C[C@@H](CNc1ccc(OC(F)(F)F)cc1)NC(=O)[C@H](CC1CCCCC1)NC(=O)[C@H]1CCCO1	25 (≈ 51.5 µM)

Test system: Liver microsomes
Experiment: Stability in rat liver microsomes
Assay type: ADME, Microsome
Settings: not given

SMILES	Stability [%]
C[C@@H](CNc1ccc(OC(F)(F)F)cc1)NC(=O)[C@H](CC1CCCCC1)NC(=O)[C@H]1CCCO1	66

Test system: not listed separately
Experiment: Half life in Wistar rat at 3 mg/kg, iv
Assay type: ADME, organism-based
Parameters: dose 3 mg/kg, route intravenous
Settings: in vivo

SMILES	half-life [h]
C[C@@H](CNc1ccc(OC(F)(F)F)cc1)NC(=O)[C@H](CC1CCCCC1)NC(=O)[C@H]1CCCO1	1.1

Test system: not listed separately
Experiment: Clearance in Wistar rat at 3 mg/kg, iv
Assay type: ADME, organism-based
Parameters: dose 3 mg/kg, route intravenous
Settings: in vivo

SMILES	clearance [mL/min/kg]
C[C@@H](CNc1ccc(OC(F)(F)F)cc1)NC(=O)[C@H](CC1CCCCC1)NC(=O)[C@H]1CCCO1	35

Test system: not listed separately
Experiment: Volume of distribution in Wistar rat at 3 mg/kg, iv
Assay type: ADME, organism-based
Parameters: dose 3 mg/kg, route intravenous
Settings: in vivo, read-out: Vdss

SMILES	Vd [L/kg]
C[C@@H](CNc1ccc(OC(F)(F)F)cc1)NC(=O)[C@H](CC1CCCCC1)NC(=O)[C@H]1CCCO1	1.78

Test system: not listed separately
Experiment: Half life in Wistar rat at 10 mg/kg, po
Assay type: ADME, organism-based
Parameters: dose 10 mg/kg, route oral
Settings: in vivo

SMILES	half-life [h]
C[C@@H](CNc1ccc(OC(F)(F)F)cc1)NC(=O)[C@H](CC1CCCCC1)NC(=O)[C@H]1CCCO1	0.967

Test system: not listed separately
Experiment: Cmax in Wistar rat at 10 mg/kg, po
Assay type: ADME, organism-based
Parameters: dose 10 mg/kg, route oral
Settings: in vivo

SMILES	Cmax [nM]
C[C@@H](CNc1ccc(OC(F)(F)F)cc1)NC(=O)[C@H](CC1CCCCC1)NC(=O)[C@H]1CCCO1	1240

Test system: not listed separately
Experiment: AUC in Wistar rat at 10 mg/kg, po
Assay type: ADME, organism-based
Parameters: dose 10 mg/kg, route oral
Settings: plasma

SMILES	AUC [ng·h/mL]
C[C@@H](CNc1ccc(OC(F)(F)F)cc1)NC(=O)[C@H](CC1CCCCC1)NC(=O)[C@H]1CCCO1	1750

Test system: not listed separately
Experiment: Bioavailability in Wistar rat at 10 mg/kg, po
Assay type: ADME, organism-based
Settings: in vivo

SMILES	bioavailability [%]
C[C@@H](CNc1ccc(OC(F)(F)F)cc1)NC(=O)[C@H](CC1CCCCC1)NC(=O)[C@H]1CCCO1	36

Molecular target: Procathepsin L (Homo sapiens, UniProt P07711)
Settings: not given

Sequence of Procathepsin L (P07711 whole entry): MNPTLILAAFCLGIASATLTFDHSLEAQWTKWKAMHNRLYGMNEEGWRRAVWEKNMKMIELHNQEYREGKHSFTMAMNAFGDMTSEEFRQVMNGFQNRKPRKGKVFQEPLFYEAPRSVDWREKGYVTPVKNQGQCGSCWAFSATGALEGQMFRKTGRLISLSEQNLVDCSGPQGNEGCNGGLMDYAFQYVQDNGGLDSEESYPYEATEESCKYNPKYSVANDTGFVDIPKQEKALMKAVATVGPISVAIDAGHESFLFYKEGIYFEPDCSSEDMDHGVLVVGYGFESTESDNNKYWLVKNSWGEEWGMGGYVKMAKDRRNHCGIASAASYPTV

SMILES	Ki [nM]
CC(C)(C)C[C@H](NC(=O)N1CCOCC1)C(=O)NCCNc1ccc(OC(F)(F)F)cc1	> 30000
O=C(NCCNc1ccc(OC(F)(F)F)cc1)[C@H](CC1CCCCC1)NC(=O)[C@H]1CCCO1	3120
C[C@@H](CNc1ccc(OC(F)(F)F)cc1)NC(=O)[C@H](CC1CCCCC1)NC(=O)O[C@@H]1CCOC1	2570
